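48-hour exposure; five concentrations; linearly interpolated endpoints. GI50: concentration for 50% inhibition of growth.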 Calls of active or inactive are those of the source. Rule as the data show it: active = GI50 up to about 1.1 µM and inactive = higher.
How the values were obtained:
Assay in all cases: DTP human tumour cell line panel, 48 h
[1] = test system: A498
[2] = test system: A549
[3] = test system: ACHN
[4] = test system: COLO 205
[5] = test system: HCT-116
[6] = test system: HCT-15
[7] = test system: M14
[8] = test system: NCI-H23
[9] = test system: OVCAR-4
[10] = test system: SF-268
[11] = test system: SK-MEL-28
[12] = test system: SK-MEL-5
[13] = test system: SK-OV-3
[14] = test system: SR
[15] = test system: UACC-62
[16] = test system: HL-60
[17] = test system: MDA-MB-231
[18] = test system: SK-MEL-2

SMILES	GI50 [1]	GI50 [2]	GI50 [3]	GI50 [4]	GI50 [5]	GI50 [6] [µM]	GI50 [7]	GI50 [8]	GI50 [9]	GI50 [10]	GI50 [11]	GI50 [12]	GI50 [13]	GI50 [14]	GI50 [15]	GI50 [16]	GI50 [17]	GI50 [18]
ON(CCc1ccncc1)Cc1ccccc1	> 100 µM (inactive)	> 100 µM (inactive)	> 100 µM (inactive)	> 100 µM (inactive)	> 100 µM (inactive)	> 100	> 100 µM (inactive)	> 100 µM (inactive)	> 100 µM (inactive)	> 100 µM (inactive)	> 100 µM (inactive)	> 100 µM (inactive)	> 100 µM (inactive)	> 100 µM (inactive)	> 100 µM (inactive)	–	–	–
O=C(Cc1ccccc1CCO)NCCc1ccccc1	> 100 µM (inactive)	> 100 µM (inactive)	> 100 µM (inactive)	> 100 µM (inactive)	> 100 µM (inactive)	> 100	> 100 µM (inactive)	> 100 µM (inactive)	> 100 µM (inactive)	> 100 µM (inactive)	> 100 µM (inactive)	> 100 µM (inactive)	> 100 µM (inactive)	> 100 µM (inactive)	> 100 µM (inactive)	> 100 µM (inactive)	> 100 µM (inactive)	> 100 µM (inactive)
COc1ccc(NC(=O)C2=C(SC)C(=O)N=C2N)cc1	> 100 µM (inactive)	–	> 100 µM (inactive)	> 100 µM (inactive)	> 100 µM (inactive)	> 100	–	> 100 µM (inactive)	> 100 µM (inactive)	> 100 µM (inactive)	> 100 µM (inactive)	> 100 µM (inactive)	> 100 µM (inactive)	40.6 µM (inactive)	> 100 µM (inactive)	> 100 µM (inactive)	> 100 µM (inactive)	82 µM (inactive)
CN(C)CCNC(=O)c1cccc2nc3c(C(=O)NCCN(C)C)cccc3nc12	1.85 µM (inactive)	1.57 µM (inactive)	0.668 µM (active)	0.612 µM (active)	0.603 µM (active)	2.98	1.51 µM (inactive)	1.19 µM (inactive)	0.589 µM (active)	0.782 µM (active)	2.03 µM (inactive)	1.56 µM (inactive)	–	0.368 µM (active)	2.9 µM (inactive)	0.713 µM (active)	1.14 µM (inactive)	1.77 µM (inactive)
